Test results: patent US20150079000A1, “Labelled Quinoxaline Derivatives as Multimodal Radiopharmaceuticals and Their Precursors” (INSTITUT NATIONAL DE LA SANTET DE LA RECHERCHE MEDICALE, priority 2012, published 2015)

Assay: Metabolism of compound [125I](1)
Format: in vivo, mice
Method: 24 primary melanoma bearing mice were intravenously injected with 2.2 MBq of [^1251](1) and sacrificed 1 h, 3 h, 6 h, 24 h, 72 h and 10 days after tracer injection. To determine the metabolic stability of [^1251](1), blood, tumour, eyes, liver, kidney and urine samples were collected at each time point […]. Faeces were collected between 0-24 h and 24-48 h. Blood was immediately diluted in 5 mL of methanol/NH4OH 99.8:0.2 and centrifuged for 5 min at 3,000 rpm. Tumour, eyes, liver, kidneys and faeces were suspended in 5 mL of methanol/NH4OH 99.8:0.2, homogenized using GentleMACS™ dissociator (Miltenyi Biotec, Bergisch Gladbach, Germany) and centrifuged for 5 min at 3,000 rpm (repeated 2 times). Urines were analysed without any treatment. The extraction efficiency was determined by measuring the radioactivity of supernatants and precipitates. Supernatants were passed through a 0.22 μm Millipore filter and then concentrated to a volume between 200 and 500 μL before injection (duplicate) onto the analytical HPLC(C18 column; solvent A: H2O (0.2% NH4OH); solvent B: MeOH (0.2% NH4OH); Gradient elution: 0-5 min: 90 to 70% of A (Q=0.5 mL·min^−1); 5-30 min: 70 to 20% of A (Q=0.9 mL·min^−1); 30-32 min: 10% of A (Q=0.9 mL·min^−1)).

[1] = Feces, (grid: 3 h; faeces collected 24-48 h)
[2] = Feces, first value column (grid: 1 h; faeces collected 0-24 h)
[3] = Urine, 1 h after [125I](1) injection
[4] = Urine, 3 h after [125I](1) injection
[5] = Urine, 6 h after [125I](1) injection
[6] = Urine, 24 h after [125I](1) injection
[7] = Urine, 72 h after [125I](1) injection
[8] = Blood, 1 h after [125I](1) injection
[9] = Blood, 3 h after [125I](1) injection
[10] = Blood, 6 h after [125I](1) injection
[11] = Kidney, 1 h after [125I](1) injection
[12] = Kidney, 3 h after [125I](1) injection
[13] = Kidney, 6 h after [125I](1) injection
[14] = Liver, 1 h after [125I](1) injection
[15] = Liver, 3 h after [125I](1) injection
[16] = Liver, 6 h after [125I](1) injection
[17] = Liver, 24 h after [125I](1) injection

% of radioactivity [1]	% of radioactivity [2]	% of radioactivity [3]	% of radioactivity [4]	% of radioactivity [5]	% of radioactivity [6]	% of radioactivity [7]	% of radioactivity [8]	% of radioactivity [9]	% of radioactivity [10]	% of radioactivity [11]	% of radioactivity [12]	% of radioactivity [13]	% of radioactivity [14]	% of radioactivity [15]	% of radioactivity [16]	% of radioactivity [17]	Compound	also measured
14.0 ± 0.0%	16.0 ± 0.0%	6.6 ± 0.6%	13.0 ± 1.4%	3.5 ± 4.9%	0.0 ± 0.0%	0.0 ± 0.0%				18.5 ± 0.7%	11.7 ± 0.7%	0.0 ± 0.0%	26.0 ± 0.0%	45.5 ± 2.1%	55.0 ± 2.8%	70.5 ± 0.7%	NCCNC(=O)c1cnc2cc([125I])ccc2n1 [Amine [^125I]I]	
27.0 ± 1.4%	8.0 ± 0.0%	25.7 ± 3.2%	30.5 ± 0.7%	51.0 ± 4.2%	85.0 ± 1.4%	99.0 ± 0.0%	76.5 ± 0.7%	88.5 ± 0.7%	85.5 ± 4.9%	20.5 ± 0.7%	37.2 ± 2.2%	57.0 ± 1.4%	20.0 ± 1.4%	21.5 ± 4.9%	29.5 ± 0.7%	29.5 ± 0.7%	[125IH] [[^125I]I^−]	% of radioactivity (Eyes, 1 h after [125I](1) injection): 9.5 ± 0.7%; % of radioactivity (Eyes, 3 h after [125I](1) injection): 5.5 ± 2.1%; % of radioactivity (Eyes, 6 h after [125I](1) injection): 4.0 ± 5.7%; % of radioactivity (Eyes, 24 h after [125I](1) injection): 0.0 ± 0.0%; % of radioactivity (Eyes, 72 h after [125I](1) injection): 0.0 ± 0.0%; % of radioactivity (Eyes, 10 d after [125I](1) injection): 0.0 ± 0.0%; % of radioactivity (Tumour, 1 h after [125I](1) injection): 13.0 ± 1.4%; % of radioactivity (Tumour, 3 h after [125I](1) injection): 6.5 ± 0.7%; % of radioactivity (Tumour, 6 h after [125I](1) injection): 9.0 ± 0.0%; % of radioactivity (Tumour, 24 h after [125I](1) injection): 0.0 ± 0.0%; % of radioactivity (Tumour, 72 h after [125I](1) injection): 0.0 ± 0.0%; % of radioactivity (Tumour, 10 d after [125I](1) injection): 0.0 ± 0.0%

Further lines, the compound ahead of its results:

Compound	% of radioactivity [1]	% of radioactivity [2]	% of radioactivity [3]	% of radioactivity [4]	% of radioactivity [5]	% of radioactivity [6]	% of radioactivity [7]	% of radioactivity [8]	% of radioactivity [9]	% of radioactivity [10]	% of radioactivity [11]	% of radioactivity [12]	% of radioactivity [13]	% of radioactivity [14]	% of radioactivity [15]	% of radioactivity [16]	% of radioactivity [17]	also measured
O=C(O)CNC(=O)c1cnc2cc([125I])ccc2n1 [Acid [^125I]II]	3.5 ± 0.7%	3.0 ± 0.0%	30.3 ± 2.4%	24.0 ± 0.0%	21.0 ± 0.0%	6.5 ± 0.7%	0.0 ± 0.0%											
O=C(O)c1cnc2cc([125I])ccc2n1 [Acid [^125I]I]	8.0 ± 1.4%	7.5 ± 0.7%	17.2 ± 3.1%	20.0 ± 1.4%	16.0 ± 1.4%	3.5 ± 0.7%	0.0 ± 0.0%	21.5 ± 2.1%	11.5 ± 0.7%	11.0 ± 0.0%	29.0 ± 1.4%	34.2 ± 0.7%	43.0 ± 1.4%					
CCNCCNC(=O)c1cnc2cc([125I])ccc2n1 [Amine [^125I]II]	2.5 ± 0.7%	6.5 ± 0.7%																
